Data on 23 compounds can be found in patent US10913727B2, “Modulators of the integrated stress pathway” (Calico Life Sciences LLC, priority 2016, dated 2021).

pEC50: −log10 of the molar value. Bounds are passed on as bounds.

For this assay, the system named is HEK293T cells carrying the ATF4 luciferase reporter. Briefly: ATF4-Luc assay, in vitro model of Vanishing Cell White Matter Disease (VWMD). The assay is classed as cell-based. Particulars: Homo sapiens, HEK-293T, 1 μg/mL tunicamycin, 7 hours, One Glo luminescence. Summed up:
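Compound at 200 nM and tunicamycin at 1 μg/mL were given together for 7 h to HEK293T cells stably transduced with an ATF4 5′-UTR-driven firefly luciferase reporter. Read-out by luminescence, reported as EC50.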
On to `CCn1nc(C)cc1C(=O)NC12CC(NC(=O)COc3ccc(Cl)c(F)c3)(C1)C2` [Compound 359, N-{3-[2-(4-chloro-3-fluorophenoxy)acetamido]bicyclo[1.1.1]pentan-1-yl}-1-ethyl-3-methyl-1H-pyrazole-5-carboxamide], for which the pEC50 (in general, the EC50 on a negative log10 scale, so that one unit is a factor of ten) was 6.00 to 6.60.
As to `O=C(COc1ccc(Cl)c(F)c1)NC12CC(Nc3nc4ccccc4o3)(C1)C2` [Compound 360, N-{3-[(1,3-benzoxazol-2-yl)amino]bicyclo[1.1.1]pentan-1-yl}-2-(4-chloro-3-fluorophenoxy)acetamide], the pEC50 is less than 5.70.
Turning to `Cn1ccc(C(=O)NC23CCC(NC(=O)COc4ccc(Cl)c(F)c4)(CC2)C(O)C3)n1` (centres unmarked) [Compound 361, N-{4-[2-(4-chloro-3-fluorophenoxy)acetamido]-3-hydroxybicyclo[2.2.2]octan-1-yl}-1-methyl-1H-pyrazole-3-carboxamide], the pEC50 is 6.60 to 7.30.
With `CN(C(=O)COc1ccc(Cl)c(F)c1)C12CC(N(C)C(=O)c3cnc(C(F)F)cn3)(C1)C2` [Compound 362, N-(3-{[(4-chloro-3-fluorophenoxy)acetyl](methyl)amino}bicyclo[1.1.1]pentan-1-yl)-5-(difluoromethyl)-N-methylpyrazine-2-carboxamide] the figure was less than 5.70; with `O=C(COc1ccc(Cl)c(F)c1)NC12CC(Nc3nccc(-c4ccccc4)n3)(C1)C2` [Compound 363, 2-(4-chloro-3-fluorophenoxy)-N-{3-[(4-phenylpyrimidin-2-yl)amino]bicyclo[1.1.1]pentan-1-yl}acetamide], 5.70 to 6.00.
In the case of `CC(C)c1cc(C(=O)NC23CC(NC(=O)COc4ccc(Cl)c(F)c4)(C2)C3)n(C)n1` [Compound 364, N-{3-[2-(4-chloro-3-fluorophenoxy)acetamido]bicyclo[1.1.1]pentan-1-yl}-1-methyl-3-(propan-2-yl)-1H-pyrazole-5-carboxamide] it was 6.60 to 7.30.
In the case of `Cn1nc(C(F)F)cc1C(=O)NC12CC(NC(=O)COc3ccc(Cl)c(F)c3)(C1)C2` [Compound 365, N-{3-[2-(4-chloro-3-fluorophenoxy)acetamido]bicyclo[1.1.1]pentan-1-yl}-3-(difluoromethyl)-1-methyl-1H-pyrazole-5-carboxamide], the pEC50 is greater than 7.30.
As to `N#Cc1cccc(C(=O)NC23CC(NC(=O)COc4ccc(Cl)c(F)c4)(C2)C3)c1` [Compound 366, N-{3-[2-(4-chloro-3-fluorophenoxy)acetamido]bicyclo[1.1.1]pentan-1-yl}-3-cyanobenzamide], the pEC50 is 6.60 to 7.30.
`Cc1cnoc1C(=O)NC12CC(NC(=O)COc3ccc(Cl)c(F)c3)(C1)C2` [Compound 367, N-{3-[2-(4-chloro-3-fluorophenoxy)acetamido]bicyclo[1.1.1]pentan-1-yl}-4-methyl-1,2-oxazole-5-carboxamide]: the pEC50 was less than 5.70.
For `Cc1cccnc1C(=O)NC12CC(NC(=O)COc3ccc(Cl)c(F)c3)(C1)C2` [Compound 368, N-{3-[2-(4-chloro-3-fluorophenoxy)acetamido]bicyclo[1.1.1]pentan-1-yl}-3-methylpyridine-2-carboxamide], the pEC50 was 6.00 to 6.60.
In the case of `O=C(COc1ccc(Cl)c(F)c1)NC12CC(Nc3nc4cc(Cl)ccc4o3)(C1)C2` [Compound 369, N-{3-[(5-chloro-1,3-benzoxazol-2-yl)amino]bicyclo[1.1.1]pentan-1-yl}-2-(4-chloro-3-fluorophenoxy)acetamide] it was 5.70 to 6.00; in that of `O=C(COc1ccc(Cl)c(F)c1)NC12CC(Nc3nccc(-c4ccc(Cl)cc4)n3)(C1)C2` [Compound 370, 2-(4-chloro-3-fluorophenoxy)-N-(3-{[4-(4-chlorophenyl)pyrimidin-2-yl]amino}bicyclo[1.1.1]pentan-1-yl)acetamide], greater than 7.30; in that of `N#Cc1ccc(C(=O)NC23CC(NC(=O)COc4ccc(Cl)c(F)c4)(C2)C3)cc1F` [Compound 371, N-{3-[2-(4-chloro-3-fluorophenoxy)acetamido]bicyclo[1.1.1]pentan-1-yl}-4-cyano-3-fluorobenzamide], 6.60 to 7.30.
On to `O=C(COc1ccc(Cl)c(F)c1)NC12CCC(NC(=O)c3ccc(C(F)(F)F)nc3)(CC1)C(F)C2` (centres unmarked) [Compound 372, N-{4-[2-(4-chloro-3-fluorophenoxy)acetamido]-2-fluorobicyclo[2.2.2]octan-1-yl}-6-(trifluoromethyl)pyridine-3-carboxamide], for which the pEC50 is 6.00 to 6.60.
With `O=C(COc1ccc(Cl)c(F)c1)NC12CCC(NC(=O)c3cnc(C(F)F)cn3)(CC1)C(F)C2` (centres unmarked) [Compound 373, N-{4-[2-(4-chloro-3-fluorophenoxy)acetamido]-2-fluorobicyclo[2.2.2]octan-1-yl}-5-(difluoromethyl)pyrazine-2-carboxamide] the figure was 6.00 to 6.60; with `Cc1cc(C(=O)NC23CCC(NC(=O)COc4ccc(Cl)c(F)c4)(CC2)CC3F)on1` (centres unmarked) [Compound 374, N-{4-[2-(4-chloro-3-fluorophenoxy)acetamido]-2-fluorobicyclo[2.2.2]octan-1-yl}-3-methyl-1,2-oxazole-5-carboxamide], less than 5.70.
In the case of `Cc1noc(C(=O)NC23CC(NC(=O)COc4ccc(Cl)c(F)c4)(C2)C3)n1` [Compound 375, N-{3-[2-(4-chloro-3-fluorophenoxy)acetamido]bicyclo[1.1.1]pentan-1-yl}-3-methyl-1,2,4-oxadiazole-5-carboxamide] it was 6.60 to 7.30; in that of `O=C(COc1ccc2c(c1)OC(F)(F)O2)NC12CC(NC(=O)c3cnc(C(F)F)cn3)(C1)C2` [Compound 376, N-(3-{2-[(2,2-difluoro-2H-1,3-benzodioxol-5-yl)oxy]acetamido}bicyclo[1.1.1]pentan-1-yl)-5-(difluoromethyl)pyrazine-2-carboxamide], 6.60 to 7.30.
For `Cc1cc(C(=O)NC23CC(NC(=O)COc4ccc5c(c4)OC(F)(F)O5)(C2)C3)on1` [Compound 377, N-(3-{2-[(2,2-difluoro-2H-1,3-benzodioxol-5-yl)oxy]acetamido}bicyclo[1.1.1]pentan-1-yl)-3-methyl-1,2-oxazole-5-carboxamide], the pEC50 is 6.00 to 6.60.
With `O=C(COc1ccc2c(c1)OC(F)(F)O2)NC12CC(NC(=O)c3ccc(OC(F)(F)F)cn3)(C1)C2` [Compound 378, N-(3-{2-[(2,2-difluoro-2H-1,3-benzodioxol-5-yl)oxy]acetamido}bicyclo[1.1.1]pentan-1-yl)-5-(trifluoromethoxy)pyridine-2-carboxamide] the figure was greater than 7.30.
Regarding `O=C(COc1ccc2c(c1)OC(F)(F)O2)NC12CC(NC(=O)c3ccc(OC(F)(F)F)nc3)(C1)C2` [Compound 379, N-(3-{2-[(2,2-difluoro-2H-1,3-benzodioxol-5-yl)oxy]acetamido}bicyclo[1.1.1]pentan-1-yl)-6-(trifluoromethoxy)pyridine-3-carboxamide], the pEC50 was 6.60 to 7.30.
For the compound `O=C(COc1ccc(Cl)c(F)c1)NC12CC(NC(=O)c3cc(C(F)(F)F)no3)(C1)C2` [Compound 380, N-{3-[2-(4-chloro-3-fluorophenoxy)acetamido]bicyclo[1.1.1]pentan-1-yl}-3-(trifluoromethyl)-1,2-oxazole-5-carboxamide], the pEC50 is 6.00 to 6.60.
As to `Cn1cc(-c2ccnc(NC34CC(NC(=O)COc5ccc(Cl)c(F)c5)(C3)C4)n2)cn1` [Compound 381, 2-(4-chloro-3-fluorophenoxy)-N-(3-{[4-(1-methyl-1H-pyrazol-4-yl)pyrimidin-2-yl]amino}bicyclo[1.1.1]pentan-1-yl)acetamide], the pEC50 is 5.70 to 6.00.
